Measured values as given in patent US12077503B2, “Substituted cyclic amides and their use as herbicides” (FMC CORPORATION, priority 2015, dated 2024).

Tests used:
Type in all cases: in vivo
Kochia (Kochia scoparia) [1] = experiment: Test A preemergence; details: Bassia scoparia, pre-emergence, 240 h, 0 to 100 scale where 0 is no effect and 100 is complete control, read-out: Kochia plant response rating; for pest or weed control at 31 g/ha: 31 g ai/ha, Preemergence; for pest or weed control at 125 g/ha: 125 g ai/ha, preemergence, visual injury rating, approximately 10 d
In short: (§1)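 Ratings of 0 (no effect) to 100 (complete control) come from visual comparison with untreated controls roughly 10 d after treatment. Test chemicals, formulated in a non-phytotoxic solvent mixture with surfactant, were applied either as a preemergence directed soil spray on seeded soil or postemergence to one- to two-leaf plants 2 to 10 cm tall.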

[2] = tested on: barnyardgrass (Echinochloa crus-galli); experiment: Test A preemergence; details: Echinochloa crus-galli, pre-emergence, 240 h, 0 to 100 scale where 0 is no effect and 100 is complete control, read-out: Barnyardgrass plant response rating; for pest or weed control at 31 g/ha: 31 g ai/ha, Preemergence; for pest or weed control at 125 g/ha: 125 g ai/ha, preemergence, visual injury rating, approximately 10 d
In short: as §1

[3] = tested on: giant foxtail (Setaria faberii); experiment: Test A preemergence; details: Setaria faberi, pre-emergence, 240 h, 0 to 100 scale where 0 is no effect and 100 is complete control, read-out: Foxtail, Giant plant response rating; for pest or weed control at 31 g/ha: 31 g ai/ha, Preemergence; for pest or weed control at 125 g/ha: 125 g ai/ha, preemergence, visual injury rating, approximately 10 d
In short: as §1

[4] = tested on: pigweed (Amaranthus retroflexus); experiment: Test A preemergence; details: Amaranthus retroflexus, pre-emergence, 240 h, 0 to 100 scale where 0 is no effect and 100 is complete control, read-out: Pigweed plant response rating; for pest or weed control at 31 g/ha: 31 g ai/ha, Preemergence; for pest or weed control at 125 g/ha: 125 g ai/ha, preemergence, visual injury rating, approximately 10 d
[5] = tested on: ragweed (common ragweed, Ambrosia elatior); experiment: Test A preemergence; details: Ambrosia artemisiifolia, pre-emergence, 240 h, 0 to 100 scale where 0 is no effect and 100 is complete control, read-out: Ragweed plant response rating; for pest or weed control at 31 g/ha: 31 g ai/ha, Preemergence; for pest or weed control at 125 g/ha: 125 g ai/ha, preemergence, visual injury rating, approximately 10 d
In short: as §1

[6] = tested on: ryegrass, Italian (Italian ryegrass, Lolium multiflorum); experiment: Test A preemergence; details: Lolium multiflorum, pre-emergence, 240 h, 0 to 100 scale where 0 is no effect and 100 is complete control, read-out: Ryegrass, Italian plant response rating; for pest or weed control at 31 g/ha: 31 g ai/ha, Preemergence; for pest or weed control at 125 g/ha: 125 g ai/ha, preemergence, visual injury rating, approximately 10 d
In short: as §1

[7] = tested on: Galium (catchweed bedstraw, Galium aparine); experiment: Test A postemergence; details: Galium, post-emergence, 240 h, Postemergence, read-out: Galium plant response rating (0 to 100 scale); for pest or weed control at 125 g/ha: 125 g ai/ha, visual rating about 10 d after treatment; for pest or weed control at 31 g/ha: 31 g ai/ha, 0 is no effect, 100 is complete control
In short: as §1

Kochia (Kochia scoparia) [8] = experiment: Test A postemergence; details: Bassia scoparia, post-emergence, 240 h, Postemergence, read-out: Kochia plant response rating (0 to 100 scale); for pest or weed control at 125 g/ha: 125 g ai/ha, visual rating about 10 d after treatment; for pest or weed control at 31 g/ha: 31 g ai/ha, 0 is no effect, 100 is complete control
In short: as §1

[9] = tested on: barnyardgrass (Echinochloa crus-galli); experiment: Test A postemergence; details: Echinochloa crus-galli, post-emergence, 240 h, Postemergence; for pest or weed control at 125 g/ha: 125 g ai/ha, visual rating about 10 d after treatment, read-out: Barnyardgrass plant response rating (0 to 100 scale, 0 no effect, 100 complete control); for pest or weed control at 31 g/ha: 31 g ai/ha, 0 is no effect, 100 is complete control, read-out: Barnyardgrass plant response rating (0 to 100 scale)
In short: as §1

[10] = tested on: blackgrass (Alopecurus myosuroides); experiment: Test A postemergence; details: Alopecurus myosuroides, post-emergence, 240 h, Postemergence, read-out: Blackgrass plant response rating (0 to 100 scale); for pest or weed control at 125 g/ha: 125 g ai/ha, visual rating about 10 d after treatment; for pest or weed control at 31 g/ha: 31 g ai/ha, 0 is no effect, 100 is complete control
In short: as §1

corn (Zea mays) = experiment: Test A postemergence; details: Zea mays, post-emergence, 240 h, Postemergence, read-out: Corn plant response rating (0 to 100 scale); for plant injury at 125 g/ha: 125 g ai/ha, visual rating about 10 d after treatment; for plant injury at 31 g/ha: 31 g ai/ha, 0 is no effect, 100 is complete control
In short: as §1

[11] = tested on: giant foxtail (Setaria faberii); experiment: Test A postemergence; details: Setaria faberi, post-emergence, 240 h, Postemergence, read-out: Foxtail, Giant plant response rating (0 to 100 scale); for pest or weed control at 125 g/ha: 125 g ai/ha, visual rating about 10 d after treatment; for pest or weed control at 31 g/ha: 31 g ai/ha, 0 is no effect, 100 is complete control
In short: as §1

[12] = tested on: pigweed (Amaranthus retroflexus); experiment: Test A postemergence; details: Amaranthus retroflexus, post-emergence, 240 h, Postemergence, read-out: Pigweed plant response rating (0 to 100 scale); for pest or weed control at 125 g/ha: 125 g ai/ha, visual rating about 10 d after treatment; for pest or weed control at 31 g/ha: 31 g ai/ha, 0 is no effect, 100 is complete control
In short: as §1

[13] = tested on: ragweed (common ragweed, Ambrosia elatior); experiment: Test A postemergence; details: Ambrosia artemisiifolia, post-emergence, 240 h, Postemergence, read-out: Ragweed plant response rating (0 to 100 scale); for pest or weed control at 125 g/ha: 125 g ai/ha, visual rating about 10 d after treatment; for pest or weed control at 31 g/ha: 31 g ai/ha, 0 is no effect, 100 is complete control
In short: as §1

[14] = tested on: ryegrass, Italian (Italian ryegrass, Lolium multiflorum); experiment: Test A postemergence; details: Lolium multiflorum, post-emergence, 240 h, Postemergence, read-out: Ryegrass, Italian plant response rating (0 to 100 scale); for pest or weed control at 125 g/ha: 125 g ai/ha, visual rating about 10 d after treatment; for pest or weed control at 31 g/ha: 31 g ai/ha, 0 is no effect, 100 is complete control
In short: as §1

[15] = tested on: wheat (Triticum aestivum); experiment: Test A postemergence; details: Triticum aestivum, post-emergence, 240 h, Postemergence, read-out: Wheat plant response rating (0 to 100 scale); for plant injury at 125 g/ha: 125 g ai/ha, visual rating about 10 d after treatment; for plant injury at 31 g/ha: 31 g ai/ha, 0 is no effect, 100 is complete control
In short: as §1

[16] = tested on: barnyardgrass (Echinochloa crus-galli); experiment: Test B flooded paddy test; details: Echinochloa crus-galli, 250 g ai/ha, Flood; 0 to 100 scale where 0 is no effect and 100 is complete control; read-out: Barnyardgrass plant response rating
In short: (§2)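 Percent control, visually estimated after 13–15 d in the greenhouse on a 0–100 basis, compares treated pots with untreated ones; compound was put into paddy water 3 cm above the soil when plants had two leaves.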

[17] = tested on: ducksalad (Heteranthera limosa); experiment: Test B flooded paddy test; details: Heteranthera limosa, 250 g ai/ha, Flood; 0 to 100 scale where 0 is no effect and 100 is complete control; read-out: Ducksalad plant response rating
In short: as §2

rice (Oryra sativa) = experiment: Test B flooded paddy test; details: Oryza sativa, 250 g ai/ha, Flood; 0 to 100 scale where 0 is no effect and 100 is complete control; read-out: Rice plant response rating
In short: as §2

[18] = tested on: sedge, umbrella (small-flower umbrella sedge, Cyperus difformis); experiment: Test B flooded paddy test; details: Cyperus difformis, 250 g ai/ha, Flood; 0 to 100 scale where 0 is no effect and 100 is complete control; read-out: Sedge, Umbrella plant response rating
In short: as §2

| SMILES | pest or weed control at 31 g/ha (Kochia (Kochia scoparia) [1]) [%] | pest or weed control at 125 g/ha (Kochia (Kochia scoparia) [1]) [%] | pest or weed control at 31 g/ha [2] [%] | pest or weed control at 125 g/ha [2] [%] | pest or weed control at 31 g/ha [3] [%] | pest or weed control at 125 g/ha [3] [%] | pest or weed control at 31 g/ha [4] [%] | pest or weed control at 125 g/ha [4] [%] | pest or weed control at 31 g/ha [5] [%] | pest or weed control at 125 g/ha [5] [%] | pest or weed control at 31 g/ha [6] [%] | pest or weed control at 125 g/ha [6] [%] | pest or weed control at 125 g/ha [7] [%] | pest or weed control at 31 g/ha [7] [%] | pest or weed control at 125 g/ha (Kochia (Kochia scoparia) [8]) [%] | pest or weed control at 31 g/ha (Kochia (Kochia scoparia) [8]) [%] | pest or weed control at 125 g/ha [9] [%] | pest or weed control at 31 g/ha [9] [%] | pest or weed control at 125 g/ha [10] [%] | pest or weed control at 31 g/ha [10] [%] | further results |
| --- | --- | --- | --- | --- | --- | --- | --- | --- | --- | --- | --- | --- | --- | --- | --- | --- | --- | --- | --- | --- | --- |
| CN1C[C@H](c2csc3c2CCOC3)[C@@H](C(=O)Nc2cccc(F)c2F)C1=O [Compound 1268] | 0 | 0 | 90 | 90 | 70 | 90 | 0 | 0 | 0 | 0 | 0 | 20 | 0 | 0 | 0 | 0 | 90 | 80 | 0 | 0 | plant injury at 125 g/ha (corn (Zea mays)): 0%; plant injury at 31 g/ha (corn (Zea mays)): 0%; pest or weed control at 125 g/ha [11]: 90%; pest or weed control at 31 g/ha [11]: 50%; pest or weed control at 125 g/ha [12]: 0%; pest or weed control at 31 g/ha [12]: 0%; pest or weed control at 125 g/ha [13]: 0%; pest or weed control at 31 g/ha [13]: 0%; pest or weed control at 125 g/ha [14]: 20%; pest or weed control at 31 g/ha [14]: 0%; plant injury at 125 g/ha [15]: 0%; plant injury at 31 g/ha [15]: 0%; pest or weed control at 250 g/ha [16]: 85%; pest or weed control at 250 g/ha [17]: 95%; pest or weed control at 250 g/ha (rice (Oryra sativa)): 20%; pest or weed control at 250 g/ha [18]: 0% |
| CN1C[C@H](c2ccc(C(F)F)cc2)[C@@H](C(=O)Nc2cccnc2F)C1=O [Compound 1274] | 30 | 70 | 30 | 90 | 80 | 90 | 30 | 70 | 20 | 80 | 0 | 20 | 60 | 50 | 70 | 50 | 90 | 50 | 30 | 0 | plant injury at 125 g/ha (corn (Zea mays)): 30%; plant injury at 31 g/ha (corn (Zea mays)): 30%; pest or weed control at 125 g/ha [11]: 90%; pest or weed control at 31 g/ha [11]: 50%; pest or weed control at 125 g/ha [12]: 20%; pest or weed control at 31 g/ha [12]: 0%; pest or weed control at 125 g/ha [13]: 30%; pest or weed control at 31 g/ha [13]: 0%; pest or weed control at 125 g/ha [14]: 20%; pest or weed control at 31 g/ha [14]: 0%; plant injury at 125 g/ha [15]: 60%; plant injury at 31 g/ha [15]: 20%; pest or weed control at 250 g/ha [16]: 20%; pest or weed control at 250 g/ha [17]: 100%; pest or weed control at 250 g/ha (rice (Oryra sativa)): 0%; pest or weed control at 250 g/ha [18]: 0% |
